{"source": "patent US20140127159A1", "about": "“HCV Combination Therapy” (Stella ApS, priority 2011, published 2014)", "key": {"[1]": {"test_system": "HCV genotype 1b replicon NS5B S282T", "assay": "Transient transfection replicon assay in Huh 7 cells, NS5B S282T", "assay_type": "cell-based", "settings": "EC50 mutant / EC50 wild-type; mean of two experiments", "protocol": "(§2) Huh 7 cells were transfected with either the wild-type or the mutant RNA constructs by electroporation. Luciferase activity was measured 72 hours after compound treatment and EC50 values determined from dose-response curves. Fold resistance was expressed as the ratio of the EC50 for mutant HCV replicon to the EC50 for wild-type HCV replicon.\n(§3) Huh 7 cells were transfected with either the wild type or the mutant RNA constructs by electroporation. Luciferase activity was measured 72 hours after compound treatment and EC50 values determined from dose-response curves. Fold resistance was expressed as the ratio of the EC50 for mutant HCV replicon to the EC50 for wild-type HCV replicon. Results are expressed as the mean of two individual experiments."}, "[2]": {"test_system": "HCV genotype 1b replicon NS5B M423I", "assay": "Transient transfection replicon assay in Huh 7 cells, NS5B M423I", "assay_type": "cell-based", "settings": "EC50 mutant / EC50 wild-type; mean of two experiments", "protocol": "as §2, §3"}, "[3]": {"test_system": "HCV genotype 1b replicon NS5A Y93H", "assay": "Transient transfection replicon assay in Huh 7 cells, NS5A Y93H", "assay_type": "cell-based", "settings": "EC50 mutant / EC50 wild-type; mean of two experiments", "protocol": "as §2, §3"}, "[4]": {"test_system": "HCV genotype 1b replicon NS3 R155K", "assay": "Transient transfection replicon assay in Huh 7 cells, NS3 R155K", "assay_type": "cell-based", "settings": "EC50 mutant / EC50 wild-type; mean of two experiments", "protocol": "as §2, §3"}, "HCV genotype 1": {"test_system": "HCV genotype 1", "assay": "Phase 2a clinical trial, miravirsen monotherapy", "assay_type": "in vivo, patients", "settings": "for mean of the maximum HCV RNA decline from baseline: 5 weekly doses subcutaneously over 29 days", "method": "Thirty-six treatment-naïve chronic HCV genotype 1 infected patients were enrolled into 3 sequential dosing cohorts and received 5 weekly doses of miravirsen 3, 5, or 7 mg/kg (n=27) or placebo (n=9) subcutaneously over 29 days and were followed up until week 18."}, "[5]": {"test_system": "HCV genotype 1b replicon NS3 A156T", "assay": "Transient transfection replicon assay in Huh 7 cells, NS3 A156T", "assay_type": "cell-based", "settings": "EC50 mutant / EC50 wild-type; mean of two experiments", "protocol": "as §2, §3"}, "all HCV genotypes": {"test_system": "all HCV genotypes", "assay": "In vitro activity against HCV genotypes", "assay_type": "cell-based"}, "[6]": {"test_system": "Huh-luc/neo-ET HCV genotype Ib replicon cells", "assay_type": "cell-based", "settings": "28 days culture under G418 selective pressure, crystal violet", "method": "Cell culture and Assay setup: The reporter cell line Huh-luc/neo-ET was obtained and prepare as described previously. Cells were plated into 10 cm tissue culture dishes at a density of 3×10^5 cells per plate in culture medium containing 250 μg/ml G418 and incubated for 24 hours at 37° C. in an environment of 5% CO2. Following the 24 hour incubation, dilutions of SPC3649, SPC4729, or telaprevir were prepared in cell culture medium (as above) with 750 μg/ml G418. Each of the dilutions was added to duplicate plates and the plates were incubated at 37° C. in an environment of 5% CO^2. Two additional plates received cell culture medium with 750 μg/ml G418 as a no-treatment control. […] The final concentration of SPC4729 was 10.0 μM. […] Following 28 days of passage, one set of dishes was stained with crystal violet and the other set of plates was utilized for expansion and establishment of resistant cell culture stocks.\nHuh-luc/neo-ET HCY genotype Ib replicon cells were cultured under selective pressure in the presence of 750 μg/mL G4 I8 with and without four independent fixed concentrations of SPC3649 anti-miR oligonucleotide, or telaprevir, or one concentration of scrambled oligonucleotide SPC4729 for 28 days in tissue culture plates. Duplicate tissue culture dishes were established and maintained for each culture condition. […]"}, "Huh-luc/neo-ET": {"test_system": "Huh-luc/neo-ET", "method": "(§1) The anti-viral efficacy and cellular toxicity of non-transfected antimiR oligonucleotide in combination with approved and experimental anti-HCV therapeutics (boceprevir or telepravir, was determined in the reporter cell line Huh-luc/neo-ET. This cell line harbors the persistently replicating I389luc-ubi-neo/NS3-3′/ET replicon containing the firefly luciferase gene-ubiquitin-neomycin phosphotransferase fusion protein and EMCV IRES driven NS3-5B HCV coding sequences containing the ET tissue culture adaptive mutations (E1202G, T1208I, and K1846T). Eight dilutions of non-transfected antimiR oligonucleotide (bracketing the calculated EC50) were evaluated in triplicate on duplicate sets of three plates with five dilutions of each of the control compounds (bracketing the calculated EC50). One set of plates was used for the determination of cellular toxicity and the other set of plates is used for the determination of anti-viral efficacy. The efficacy and toxicity results was quantified with firefly luciferase activity and XTT dye reduction, respectively, and the results of the assay is imported into the Prichard and Shipman MacSynergy II software program. The MacSynery II analysis includes calculation of the dose response of the two (or more) compounds when used alone followed by calculation of the expected additive level of antiviral inhibition or toxicity when the compounds are used together based on the individual dose response curves. The expected level of activity at each of the concentration data points is compared to the experimentally determined antiviral activity in the assay. The expected activity was subtracted from the realized activity, yielding a negative, zero or positive value.\nThe reporter cell line Huh-luc/neo-ET was obtained from Dr. Ralf Bartenschlager (Department of Molecular Virology, Hygiene Institute, University of Heidelberg, Germany) by ImQuest BioSciences. This cell line harbors the persistently replicating 1389luc-ubi-neo/NS3-3′IET replicon containing the firefly luciferase gene-ubiquitinneomycin phosphotransferase fusion protein and EMCV IRES driven NS3-5B HCV coding sequences containing the ET tissue culture adaptive mutations (E 1202G, T12081, and KI846T). A stock culture of the Huh-luc/neo-ET was expanded by culture in DMEM supplemented with 10% FBS, 2 mM glutamine, penicillin (100 IU/mL)/streptomycin (100 f.Ig/mL) and IX nonessential amino acids plus I mg/ml G418. Prior to plating, the cells were split 1:4 and cultured for two passages in the same medium plus 250 f.Ig/mL G418. The cells were treated with trypsin and enumerated by staining with trypan blue and seeded into 96-well tissue culture plates at a cell culture density 5.0×10^3 cells per well in a volume of 85 f.IL per well and incubated at […] in an environment of 5% CO2 for 24 hours. Six plates were established for the determination of combination efficacy (EC50) and cytotoxicity (TC50) for each of the compound combinations (three plates each for efficacy and toxicity). […] Following incubation, the plates were assessed for anti-HCV activity by measurement of luciferase reporter activity and cellular cytotoxicity by XTT staining."}, "[7]": {"test_system": "HCV genotype Ib replicon in Huh-luc/neoET cells", "assay_type": "cell-based", "settings": "for Efficacy, Antagonism vol: in combination with miravirsen (SPC3649), 95% confidence interval, median (≧3 experiments) or individual values", "method": "as §1\nThis example was based on an in vitro evaluation of SPC3649 (miravirsen) in combination with anti-HCV drugs and experimental compounds. […] The combination antiviral assays were performed using the reporter cell line Huh-luc/neo-ET, which contains a bicistronic HCV genotype Ib replicon. Combination data were analyzed using MacSynergy II software at the 95%, confidence interval. The in vitro combination assays were designed to define the antiviral interaction of the two compounds and to determine if their interaction was synergistic or antagonistic.\nThe reporter cell line Huh-luc/neo-ET was obtained from Dr. Ralf Bartenschlager (Department of Molecular Virology, Hygiene Institute, University of Heidelberg, Germany) by ImQuest BioSciences. This cell line harbors the persistently replicating 1389luc-ubi-neo/NS3-3′IET replicon containing the firefly luciferase gene-ubiquitinneomycin phosphotransferase fusion protein and EMCV IRES driven NS3-5B HCV coding sequences containing the ET tissue culture adaptive mutations (E 1202G, T12081, and KI846T). […]"}}, "note": "Where “and” joins values, the source holds several entries; their conditions need not be identical. Equal entries are not always repeated. Entries after “also recorded” stand apart in the source; their conditions may differ. Where two headings read alike, the source gives them in different places."}
{"compound": "5′-^mCs^ocsAs^otstsGs^oTs^ocsas^mCs^oas^mCs^ots^mCs^omC^o-3′ (CCATTGTCACACTCC; all phosphorothioate, sugars by position and methylation of C not given here; further chemistry not fully specified) [miravirsen]", "values": [{"measurement": "Fold Resistance NS5B S282T", "setting": "[1]", "value": 1.9, "unit": "fold"}, {"measurement": "Fold Resistance NS5B M423I", "setting": "[2]", "value": 1.7, "unit": "fold"}, {"measurement": "Fold Resistance NS5A Y93H", "setting": "[3]", "value": 0.9, "unit": "fold"}, {"measurement": "Fold Resistance NS3 R155K", "setting": "[4]", "value": 1.2, "unit": "fold"}, {"measurement": "mean of the maximum HCV RNA decline from baseline", "setting": "HCV genotype 1; 3 mg/kg", "value": 1.2, "unit": "log10 IU/mL"}, {"measurement": "mean of the maximum HCV RNA decline from baseline", "setting": "HCV genotype 1; 5 mg/kg", "value": 2.9, "unit": "log10 IU/mL"}, {"measurement": "mean of the maximum HCV RNA decline from baseline", "setting": "HCV genotype 1; 7 mg/kg", "value": 3.0, "unit": "log10 IU/mL"}, {"measurement": "safety and tolerability, adverse events", "setting": "HCV genotype 1; 3, 5 or 7 mg/kg", "value": "no dose-limiting adverse events; also recorded: safe, well-tolerated"}, {"measurement": "escape mutations / emergence of viral resistance", "setting": "HCV genotype 1; HCV genome miR-122 binding sites", "value": "no escape mutations were observed; also recorded: not seen"}, {"measurement": "Fold Resistance NS3 A156T", "setting": "[5]", "value": 1.0, "unit": "fold"}, {"measurement": "efficacy against HCV genotypes in vitro", "setting": "all HCV genotypes", "value": "effective against all HCV genotypes in vitro"}, {"measurement": "distinct individual resistant clonal populations", "setting": "[6]; listed as SPC3649", "value": "failed to produce distinct individual resistant clonal populations; also recorded: distinct individual resistant clonal populations were not produced"}]}
{"compound": "C[C@@]1(O)[C@H](O)[C@@H](CO)O[C@H]1n1ccc(N)nc1=O", "note": "[2′-C-Methylcytidine]", "values": [{"measurement": "Fold Resistance NS5B M423I", "setting": "[2]", "value": 1.0, "unit": "fold"}, {"measurement": "Fold Resistance NS5A Y93H", "setting": "[3]", "value": 1.0, "unit": "fold"}, {"measurement": "Fold Resistance NS3 R155K", "setting": "[4]", "value": 0.8, "unit": "fold"}, {"measurement": "Fold Resistance NS3 A156T", "setting": "[5]", "value": 0.9, "unit": "fold"}]}
{"compound": "COC(=O)N[C@H](C(=O)N1CCC[C@H]1c1nc(-c2ccc(-c3ccc(-c4c[nH]c([C@@H]5CCCN5C(=O)[C@@H](NC(=O)OC)C(C)C)n4)cc3)cc2)c[nH]1)C(C)C", "note": "[BMS 790052, Carbamic acid, N,N′-[[1,1′-biphenyl]-4,4′-diylbis[1H-imidazole-5,2-diyl-(2S)-2,1-pyrrolidinediyl[(1S)-1-(1-methylethyl)-2-oxo-2,1-ethanediyl]]]bis-, C,C′-dimethyl ester]", "values": [{"measurement": "Fold Resistance NS5A Y93H", "setting": "[3]", "value": 29.9, "unit": "fold"}, {"measurement": "Cytotoxicity, Antagonism vol", "setting": "Huh-luc/neo-ET; human", "value": "0/−21.9 μM^2%"}, {"measurement": "Cytotoxicity, Synergy vol", "setting": "Huh-luc/neo-ET; human", "value": "0/−21.9 μM^2%"}, {"measurement": "Efficacy, Antagonism vol", "setting": "[7]", "value": "−24.5 μM^2% and −0.06 μM^2%"}]}
{"compound": "CCC[C@H](NC(=O)[C@@H]1[C@H]2CCC[C@H]2CN1C(=O)[C@@H](NC(=O)[C@@H](NC(=O)c1cnccn1)C1CCCCC1)C(C)(C)C)C(=O)C(=O)NC1CC1", "note": "[Telaprevir, (1S,3aR,6aS)-2-[(2S)-2-[[(2S)-2-Cyclohexyl-2-(pyrazine-2-carbonylamino)acetyl]amino]-3,3-dimethylbutanoyl]-N-[(3S)-1-(cyclopropylamino)-1,2-dioxohexan-3-yl]-3,3a,4,5,6,6a-hexahydro-1H-cyclopenta[c]pyrrole-1-carboxamide]", "values": [{"measurement": "Fold Resistance NS5B S282T", "setting": "[1]", "value": 1.0, "unit": "fold"}, {"measurement": "Fold Resistance NS3 R155K", "setting": "[4]", "value": 4.6, "unit": "fold"}, {"measurement": "Cytotoxicity, Antagonism vol", "setting": "Huh-luc/neo-ET; in combination with miravirsen (SPC3649), 95% confidence interval", "value": "0/−5.05 μM^2%"}, {"measurement": "Cytotoxicity, Antag Vol", "setting": "Huh-luc/neo-ET; in combination with ribavirin, 95% confidence level", "value": "0.00/−50.9 μM^2%"}, {"measurement": "Efficacy, Antagonism vol", "setting": "[7]", "value": "0/−3.2 (±3.08/6.89) μM^2%"}, {"measurement": "Efficacy, Antag Vol", "setting": "[7]; in combination with ribavirin, 95% confidence level, individual values", "value": "37.5/22.6; μM^2%"}, {"measurement": "distinct individual resistant clonal populations", "setting": "[6]", "value": "production of distinct individual resistant clonal populations"}]}
{"compound": "CC(C)(C)C#Cc1cc(N(C(=O)[C@H]2CC[C@H](C)CC2)[C@H]2CC[C@H](O)CC2)c(C(=O)O)s1", "note": "[VX-222]", "values": [{"measurement": "Fold Resistance NS5B M423I", "setting": "[2]", "value": 4.4, "unit": "fold"}, {"measurement": "Cytotoxicity, Synergy vol", "setting": "Huh-luc/neo-ET; human", "value": "0/−28.6; 0/0 μM^2%"}, {"measurement": "Efficacy, Antagonism vol", "setting": "[7]", "value": "−34.44", "unit": "μM^2%"}]}
